Experimental data as given in article PMC9578396, “Intrinsic Antibacterial Activity of Xeruborbactam In Vitro: Assessing Spectrum and Mode of Action” (Antimicrobial Agents and Chemotherapy, 2022).

Test system: major PBPs in total membrane preparations
Experiment: Bocillin FL competition PBP binding assay, probe incubation at 30°C
Parameters: species or system E. coli, K. pneumoniae, A. baumannii, and P. aeruginosa
Details: concentrations up to 300 μM; fluorescent probe incubation at 30°C
Method: Ten milliliters of overnight bacterial culture was inoculated in 1 L of LB medium and grown to an OD600 of 0.7 to 0.9. The cell pellet was washed once with 50 mL of solution containing 100 mM Na-phosphate at pH 7.0 and 100 mM NaCl and resuspended in 10 mL of the same buffer with one tablet of EDTA-free mini-protease inhibitor and 10 mg of lysozyme. Cell suspensions were incubated for 45 min at 37°C, and then 200 μL of DNase I was added along with MgSO4 (to a final concentration of 10 mM), followed by three cycles of freeze-thawing (10 min and 20 min, respectively). Four cycles of sonication at maximum power were performed next, each cycle lasting for 30 s with 1 min on ice between cycles. The cell suspension was centrifuged at 12,000 × g for 10 min at 4°C. The supernatant was collected and centrifuged at 100,000 × g for 45 min at 4°C. The pellet was washed three times with 10 mL of 100 mM Na-phosphate, pH 7.0, by resuspension and subsequent centrifugation at 100,000 × g for 10 min at 4°C. The pellet was finally resuspended in 1.5 mL of 100 mM Na-phosphate, pH 7.0, and passed several times through a Dounce homogenizer (tight pestle). […]
Five microliters of total bacterial membrane preparation was mixed with 5 μL of a test compound at a desired concentration in 100 mM Na-phosphate buffer, pH 7.0. […] IC50 values were calculated with Prism software (GraphPad).

O=C(O)c1c(F)ccc2c1OB(O)[C@@H]1C[C@H]21 [Xeruborbactam]
interaction with PBPs: No detectable interactions
